The target in assay [1] is T1, Estrogen receptor (Rattus norvegicus, UniProt P06211).
T1 sequence (P06211 whole entry): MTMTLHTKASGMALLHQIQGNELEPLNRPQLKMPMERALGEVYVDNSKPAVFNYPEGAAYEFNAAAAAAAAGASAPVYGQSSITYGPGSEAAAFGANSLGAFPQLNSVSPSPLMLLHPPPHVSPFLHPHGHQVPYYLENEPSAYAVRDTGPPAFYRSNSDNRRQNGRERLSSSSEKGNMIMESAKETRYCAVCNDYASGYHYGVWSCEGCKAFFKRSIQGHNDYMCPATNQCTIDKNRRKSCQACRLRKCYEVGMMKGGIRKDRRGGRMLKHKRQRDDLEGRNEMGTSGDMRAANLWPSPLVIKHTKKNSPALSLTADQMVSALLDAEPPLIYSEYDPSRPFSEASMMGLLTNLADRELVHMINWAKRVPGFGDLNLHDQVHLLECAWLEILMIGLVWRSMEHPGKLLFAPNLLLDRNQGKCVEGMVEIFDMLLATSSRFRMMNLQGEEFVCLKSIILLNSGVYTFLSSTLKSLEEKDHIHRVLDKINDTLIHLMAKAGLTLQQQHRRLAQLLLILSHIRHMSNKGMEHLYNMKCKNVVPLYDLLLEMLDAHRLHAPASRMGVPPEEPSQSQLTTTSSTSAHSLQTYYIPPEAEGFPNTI

In assay [2] the target is Estrogen receptor beta (Rattus norvegicus, UniProt Q62986).
Assay [3] concerns the target Estrogen receptor beta (Mus musculus, UniProt O08537).
The species named for assay [4] is Rattus norvegicus. Briefly: Effect of combination of compound and PPT on rat vasomotor instability in terms of tail skin temperature change 15 min after naloxone injection. In kind it is functional.
For the next assay, the species on record is Mus musculus. To be noted: dose 50 mg/kg.
For assay [5], the target named is T2, Estrogen receptor (Homo sapiens, UniProt P03372).
T2 sequence (P03372 whole entry): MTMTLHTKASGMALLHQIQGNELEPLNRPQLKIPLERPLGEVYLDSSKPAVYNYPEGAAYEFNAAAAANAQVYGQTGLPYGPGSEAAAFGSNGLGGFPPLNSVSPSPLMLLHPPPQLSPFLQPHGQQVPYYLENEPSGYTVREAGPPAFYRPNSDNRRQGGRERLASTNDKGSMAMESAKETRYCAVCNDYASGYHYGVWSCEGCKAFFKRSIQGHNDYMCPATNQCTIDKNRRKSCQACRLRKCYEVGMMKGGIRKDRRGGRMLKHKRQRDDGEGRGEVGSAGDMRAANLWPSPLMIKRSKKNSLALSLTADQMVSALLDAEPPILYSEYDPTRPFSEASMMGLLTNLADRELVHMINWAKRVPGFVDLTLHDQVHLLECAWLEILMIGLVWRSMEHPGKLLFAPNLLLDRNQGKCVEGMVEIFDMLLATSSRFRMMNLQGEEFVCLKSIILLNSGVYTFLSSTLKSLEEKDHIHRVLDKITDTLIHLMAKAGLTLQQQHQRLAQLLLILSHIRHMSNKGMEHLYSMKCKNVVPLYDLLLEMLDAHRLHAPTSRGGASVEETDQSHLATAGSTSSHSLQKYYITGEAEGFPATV

Assay [6] addresses Estrogen receptor beta (Homo sapiens, UniProt Q92731).
Assay [7] has as its target T3, Estrogen receptor (Mus musculus, UniProt P19785).
T3 sequence (P19785 whole entry): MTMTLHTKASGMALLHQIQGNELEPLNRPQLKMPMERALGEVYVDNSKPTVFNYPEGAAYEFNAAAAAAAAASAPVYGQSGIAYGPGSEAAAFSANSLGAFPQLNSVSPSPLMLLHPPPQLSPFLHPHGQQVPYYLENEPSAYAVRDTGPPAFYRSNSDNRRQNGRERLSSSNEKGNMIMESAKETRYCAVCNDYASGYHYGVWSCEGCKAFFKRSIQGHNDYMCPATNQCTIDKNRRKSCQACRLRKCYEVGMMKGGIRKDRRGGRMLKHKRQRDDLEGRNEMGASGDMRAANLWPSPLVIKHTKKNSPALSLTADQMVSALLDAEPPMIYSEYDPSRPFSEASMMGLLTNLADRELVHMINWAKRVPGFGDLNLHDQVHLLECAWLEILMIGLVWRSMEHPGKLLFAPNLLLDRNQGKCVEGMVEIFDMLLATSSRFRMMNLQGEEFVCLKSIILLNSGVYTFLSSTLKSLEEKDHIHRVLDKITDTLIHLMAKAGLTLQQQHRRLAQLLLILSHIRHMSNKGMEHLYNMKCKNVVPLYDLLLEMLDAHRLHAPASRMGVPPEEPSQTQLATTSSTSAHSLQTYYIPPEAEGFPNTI

Assay [8] addresses Estrogen receptor beta (Rattus norvegicus) (UniProt Q62986). To be noted: Prostate gland.
Assay [9] concerns Rattus norvegicus. Briefly: Trabecular bone mineral density in ovariectomized rat when treated with compound at 10 mg/kg dose. In kind it is functional, Trabecula.
Assay [10] relates to Rattus norvegicus. Briefly: Total bone mineral density in ovariectomized rat when treated with compound at 10 mg/kg dose. Format: functional.
For assay [11], the target named is Estrogen receptor beta (Rattus norvegicus) (UniProt Q62986). As to conditions: Prostate gland. The source holds these as a separate data set.
Estrogen receptor beta (Rattus norvegicus), sequence (Q62986 whole entry): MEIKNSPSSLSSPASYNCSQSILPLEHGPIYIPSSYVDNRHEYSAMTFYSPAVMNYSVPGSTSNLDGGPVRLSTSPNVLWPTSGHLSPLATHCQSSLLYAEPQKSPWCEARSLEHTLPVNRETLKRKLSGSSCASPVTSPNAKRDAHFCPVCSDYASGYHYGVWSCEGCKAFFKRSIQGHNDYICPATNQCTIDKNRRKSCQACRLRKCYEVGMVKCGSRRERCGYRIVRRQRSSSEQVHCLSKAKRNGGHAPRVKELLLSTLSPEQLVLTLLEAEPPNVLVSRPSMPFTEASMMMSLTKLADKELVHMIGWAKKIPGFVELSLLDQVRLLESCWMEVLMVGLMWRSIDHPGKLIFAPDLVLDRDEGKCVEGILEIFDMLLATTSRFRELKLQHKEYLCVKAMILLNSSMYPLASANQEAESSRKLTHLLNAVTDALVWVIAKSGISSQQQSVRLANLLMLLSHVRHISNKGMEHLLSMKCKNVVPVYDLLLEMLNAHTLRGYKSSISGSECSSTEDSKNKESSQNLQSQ

Estrogen receptor beta (Mus musculus, UniProt O08537), sequence (O08537 whole entry): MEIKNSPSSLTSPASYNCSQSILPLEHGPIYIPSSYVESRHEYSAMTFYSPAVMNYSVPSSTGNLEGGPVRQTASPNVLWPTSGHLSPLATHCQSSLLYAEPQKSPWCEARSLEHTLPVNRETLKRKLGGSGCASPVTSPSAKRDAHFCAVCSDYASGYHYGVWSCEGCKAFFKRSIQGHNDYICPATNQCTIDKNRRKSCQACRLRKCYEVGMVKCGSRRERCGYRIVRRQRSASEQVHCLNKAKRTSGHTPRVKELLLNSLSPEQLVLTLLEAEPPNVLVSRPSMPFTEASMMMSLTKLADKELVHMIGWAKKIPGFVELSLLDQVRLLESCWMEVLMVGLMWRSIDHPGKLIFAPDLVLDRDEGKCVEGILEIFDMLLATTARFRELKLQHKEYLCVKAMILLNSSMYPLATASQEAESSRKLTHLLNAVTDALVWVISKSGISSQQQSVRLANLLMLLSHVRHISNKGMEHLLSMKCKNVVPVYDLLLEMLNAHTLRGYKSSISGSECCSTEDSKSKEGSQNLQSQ
Estrogen receptor beta (Homo sapiens, UniProt Q92731), sequence (Q92731 whole entry): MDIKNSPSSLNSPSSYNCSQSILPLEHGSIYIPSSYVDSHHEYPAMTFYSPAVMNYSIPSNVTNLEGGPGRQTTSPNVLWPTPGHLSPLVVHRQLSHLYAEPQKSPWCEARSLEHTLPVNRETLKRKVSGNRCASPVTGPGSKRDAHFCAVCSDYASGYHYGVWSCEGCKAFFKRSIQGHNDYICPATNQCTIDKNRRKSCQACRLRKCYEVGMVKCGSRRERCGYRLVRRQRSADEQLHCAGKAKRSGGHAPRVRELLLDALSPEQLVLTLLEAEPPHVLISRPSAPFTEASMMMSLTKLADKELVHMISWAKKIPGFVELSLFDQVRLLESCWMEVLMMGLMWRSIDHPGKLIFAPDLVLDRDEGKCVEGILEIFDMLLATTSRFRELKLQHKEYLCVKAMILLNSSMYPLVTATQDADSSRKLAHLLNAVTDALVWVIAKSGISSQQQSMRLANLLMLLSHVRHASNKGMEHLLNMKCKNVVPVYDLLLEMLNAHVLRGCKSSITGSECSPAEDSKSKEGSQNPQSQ
Estrogen receptor beta (Rattus norvegicus, UniProt Q62986), sequence (Q62986 whole entry): as the sequence (Q62986 whole entry) above
Description for Mus musculus: Weight of mouse uterine when treated with compound at 50 mg/kg dose was determined

The IC50 is the point on the concentration scale where inhibition reaches its midpoint. High values mean lower potency, low ones higher potency. Consider `N#Cc1cc(O)cc2nc(-c3ccc(O)cc3)oc12`, for which the IC50 against Estrogen receptor [1] is 362 nM; against Estrogen receptor beta [2] it was 4 nM; against Estrogen receptor beta [3], 4.3 nM. Moreover, the Activity in the assay filed under Rattus norvegicus [4] was 2.7.

The compound `Oc1cc(/C=C\F)c2oc(-c3ccc(O)c(F)c3)nc2c1` came in with a Weight in the assay filed under Mus musculus of 9.8 mg. Also, the IC50 against Estrogen receptor [5] amounted to 376 nM; at Estrogen receptor beta [6], 3.2 nM.

`O/N=C/c1cc(O)ccc1-c1noc2cc(O)ccc12`: the figures for the 50% inhibitory concentration (IC50) on Estrogen receptor [5] and on Estrogen receptor beta [6] were 2390 nM and 383 nM, respectively.

In the case of `Oc1ccc2c(-c3nc4cc(F)c(O)cc4o3)cccc2c1`, the IC50 on Estrogen receptor [5] came to 434 nM; against Estrogen receptor beta [6] it was 46 nM.

Turning to `Oc1ccc(-c2noc3ccccc23)c(O)c1`, the IC50 was 6100 nM against Estrogen receptor [5] and 718 nM on Estrogen receptor beta [6].

Regarding `C/C=C\c1cc(O)cc2nc(-c3ccc(O)cc3)oc12`, the results for the IC50 at Estrogen receptor [5] and against Estrogen receptor beta [6] were 775 nM and 1.42 nM, respectively.

For the compound `Oc1ccc(-c2nc3cc(O)cc(/C=C\Br)c3o2)cc1`, the IC50 amounted to 4650 nM against Estrogen receptor [5] and 45 nM against Estrogen receptor beta [6].

Regarding `Oc1ccc(-c2nc3ccc(O)cc3o2)cc1`, the IC50 against Estrogen receptor [1] was 821 nM; on Estrogen receptor beta [2], 20 nM; against Estrogen receptor beta [3] it was 9.5 nM; on Estrogen receptor [7] it was 1340 nM.

As to `Oc1ccc(-c2nc3cc(O)ccc3o2)cc1`, the IC50 at Estrogen receptor beta [2] stood at 2.2 nM; against Estrogen receptor beta [3], 9.9 nM; against Estrogen receptor [7] it was 1630 nM.

Compound `C=Cc1cc(O)cc2nc(-c3c(F)cc(O)cc3F)oc12` displayed a Weight in the assay listed under Mus musculus of 10 mg. Further, the IC50 on Estrogen receptor [5] came to 249 nM; against Estrogen receptor beta [6], 2.2 nM.

Regarding `Oc1ccc(-c2noc3ccc(O)cc23)c(O)c1`, the figures for the IC50 against Estrogen receptor [5] and against Estrogen receptor beta [6] were 4070 nM and 138 nM, respectively.

As for `COc1cc(O)c(Br)c2nc(-c3ccc(O)c(F)c3)oc12`, the IC50 at Estrogen receptor [5] was 2670 nM; on Estrogen receptor beta [6] it was 52 nM.

In the case of `Oc1cc(Br)c2oc(-c3ccc(O)c(F)c3)nc2c1`, the IC50 on Estrogen receptor [1] stood at 171 nM; on Estrogen receptor beta [2], 2 nM; against Estrogen receptor beta [3] it was 2.7 nM; against Estrogen receptor [7], 199 nM. The compound further showed a Weight in [8] of 119 mg. Besides, the values for the Density in the assay on Rattus norvegicus [9] and in the assay on Rattus norvegicus [10] were 312.34 mg/cm3 and 501.4 mg/cm3, respectively.

Regarding `C/C=C\c1cc(O)cc2nc(-c3ccc(O)cc3F)oc12`, the figures for the IC50 at Estrogen receptor [5] and against Estrogen receptor beta [6] were 539 nM and 23 nM, respectively.

Take `N#CCc1cc(O)ccc1-c1noc2cc(O)ccc12`: the IC50 against Estrogen receptor [5] was determined as 717 nM; at Estrogen receptor beta [6], 96 nM.

On to `Cc1cc(O)c2cccc(-c3nc4ccc(O)cc4o3)c2c1`, for which the IC50 at Estrogen receptor [5] was 163 nM; against Estrogen receptor beta [6] it was 6 nM.

In turn, `Oc1ccc2c(-c3ccccc3O)noc2c1` gave a concentration for half-maximal inhibition (IC50) at Estrogen receptor [5] of 3000 nM.

As to `N#Cc1cc(O)cc2nc(-c3ccc(O)cc3F)oc12`, the IC50 at Estrogen receptor [5] was 138 nM; at Estrogen receptor beta [6], 2.4 nM.

With `Oc1ccc(-c2nc3cc(O)cc(/C=C\Br)c3o2)c(F)c1`, the figures for the IC50 against Estrogen receptor [5] and against Estrogen receptor beta [6] were 196 nM and 16 nM, respectively.

`C=Cc1cc(O)cc2nc(-c3cc(F)c(O)cc3F)oc12`: the IC50 against Estrogen receptor [5] came to 4040 nM; at Estrogen receptor beta [6] it was 66 nM.

`N#Cc1cc(O)ccc1-c1noc2cc(O)ccc12`: the IC50 worked out at 264 nM against Estrogen receptor [5] and 12 nM against Estrogen receptor beta [6].

Take `C=CCc1cc(O)cc2nc(-c3ccc(O)cc3F)oc12`: the figures for the IC50 on Estrogen receptor [5] and at Estrogen receptor beta [6] were 98 nM and 3 nM, respectively.

As to `COc1c(Br)c(O)c(Br)c2nc(-c3ccc(O)c(F)c3)oc12`, the IC50 at Estrogen receptor [5] came to 559 nM; against Estrogen receptor beta [6], 64 nM.

Regarding `Oc1ccc2nc(-c3cccc(O)c3O)oc2c1`, the IC50 against Estrogen receptor [5] amounted to 2350 nM.

Regarding `Oc1ccc(-c2nc3cc(O)cc(Br)c3o2)cc1`, the IC50 came to 132 nM on Estrogen receptor [1], 1.2 nM at Estrogen receptor beta [2], 1.7 nM against Estrogen receptor beta [3] and 132 nM at Estrogen receptor [7]. Moreover, the Density was found to be 287.56 mg/cm3 in the assay on Rattus norvegicus [9] and 525.51 mg/cm3 with Rattus norvegicus [10]. The Activity in the assay listed under Rattus norvegicus [4] amounted to 1.9.

As for `O=Cc1cc(O)cc2nc(-c3ccc(O)cc3)oc12`, the IC50 on Estrogen receptor [1] is 2250 nM; against Estrogen receptor beta [2], 29 nM; on Estrogen receptor beta [3], 16.5 nM.

Regarding `C=Cc1cc(O)cc2nc(-c3ccc(O)cc3C)oc12`, the values for the IC50 against Estrogen receptor [5] and at Estrogen receptor beta [6] were 1120 nM and 27 nM, respectively.

`CC(C)C(=O)Nc1ccc([N+](=O)[O-])c(C(F)(F)F)c1` displayed a Weight in assay [11] of 15.2 mg.

Turning to `C=Cc1cc(O)cc2nc(-c3ccc(O)c(F)c3)oc12` [PRINABEREL], the IC50 came out at 618 nM against Estrogen receptor [1], 3.14 nM at Estrogen receptor beta [2], 3.7 nM on Estrogen receptor beta [3] and 746 nM against Estrogen receptor [7]. In assay [8], the Weight turned out to be 132 mg.

As for `C=CCc1cc(O)cc2nc(-c3ccc(O)cc3)oc12`, the Weight in the assay filed under Mus musculus is given as 10 mg. For the same compound, the values for the IC50 against Estrogen receptor [5] and on Estrogen receptor beta [6] were 727 nM and 13 nM, respectively.

Regarding `C=Cc1cc(O)cc2nc(-c3ccc(O)cc3F)oc12`, the Weight in the assay filed under Mus musculus is listed as 10.3 mg.

In the case of `CCCCOc1cc(-c2nc3ccc(O)cc3o2)ccc1O`, the IC50 was 6240 nM on Estrogen receptor [5] and 3660 nM against Estrogen receptor beta [6].

`Oc1ccc2nc(-c3ccc(O)c(F)c3)oc2c1` yielded an IC50 against Estrogen receptor [5] of 8430 nM.

Take `C=Cc1cc(O)cc2nc(-c3ccc(O)cc3)oc12`: at Estrogen receptor [5], the IC50 was 447 nM.

With `COC(=O)c1cc(O)cc2nc(-c3ccc(O)cc3)oc12`, the IC50 was above 5000 nM at Estrogen receptor [5] and 356 nM on Estrogen receptor beta [6].

Regarding `Oc1ccc(-c2noc3cc(O)ccc23)cc1`, the IC50 is 716 nM on Estrogen receptor [1], 36 nM on Estrogen receptor beta [2], 13 nM against Estrogen receptor beta [3] and 1090 nM against Estrogen receptor [7].

For `O=C(O)c1cc(O)cc2nc(-c3ccc(O)cc3)oc12`, the IC50 against Estrogen receptor [5] and against Estrogen receptor beta [6] was above 5000 nM in each case.

(Values after ChEMBL document CHEMBL1138773, “Design and synthesis of aryl diphenolic azoles as potent and selective estrogen receptor-beta ligands” (J Med Chem, 2004).)
